Data set [1] concerns the target T1, P2X7 receptor (Homo sapiens, UniProt Q99572).
T1 construct: host or cells: THP-1 cells differentiated with LPS and IFN-γ
T1 sequence (Q99572 1-595): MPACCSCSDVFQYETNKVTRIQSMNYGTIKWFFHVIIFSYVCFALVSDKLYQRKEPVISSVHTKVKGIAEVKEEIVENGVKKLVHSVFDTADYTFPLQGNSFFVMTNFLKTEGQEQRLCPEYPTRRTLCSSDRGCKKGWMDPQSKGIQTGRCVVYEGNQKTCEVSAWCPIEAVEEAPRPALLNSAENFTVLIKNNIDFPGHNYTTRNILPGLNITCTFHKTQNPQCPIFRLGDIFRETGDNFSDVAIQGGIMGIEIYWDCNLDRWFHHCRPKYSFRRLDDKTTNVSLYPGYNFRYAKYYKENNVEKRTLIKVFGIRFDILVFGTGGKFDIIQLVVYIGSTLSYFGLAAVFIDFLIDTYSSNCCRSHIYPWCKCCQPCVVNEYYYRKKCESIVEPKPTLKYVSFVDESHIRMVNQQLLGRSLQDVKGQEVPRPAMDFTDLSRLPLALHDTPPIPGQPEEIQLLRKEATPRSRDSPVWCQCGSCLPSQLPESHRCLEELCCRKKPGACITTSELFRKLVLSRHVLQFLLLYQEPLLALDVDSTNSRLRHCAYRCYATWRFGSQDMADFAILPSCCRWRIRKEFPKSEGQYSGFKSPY
Put plainly: IL-1β release assay in differentiated THP-1 cells stimulated with BzATP (Example 9); % inhibition and IC50. In kind it is cell-based. To be noted: THP-1 cells differentiated with LPS and IFN-γ, 30 min pretreatment, BzATP 250 uM, IL-1β by ELISA. In a few lines:
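Differentiated THP-1 cells pretreated 30 min with compound in RPMI before BzATP stimulation. Supernatant IL-1β measured by ELISA. Percent inhibition derived from background-adjusted IL-1β of treated versus untreated cells.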
(In general: In an ELISA, binding on a coated surface is turned into a signal by an enzyme label.)

The nature of data set [2]: Pharmacokinetic evaluation following intravenous and oral administration in rats (oral bioavailability). The format is in vivo, Male Sprague-Dawley rats. Particulars: PO 1 to 5 mg/kg vs IV 1 mg/kg, AUCinf normalized to dose. On the procedure:
Male Sprague-Dawley rats are acclimatized for at least 24 hours prior to experiment initiation. […] During the first 3 hours of experimentation, the animals receive only water ad libitum. At least three animals each are tested for intravenous and oral dosage. For intravenous formulation, compounds were dissolved (0.25 to 1 mg/mL) in a mixture of 3% dimethyl sulfoxide, 40% PEG 400 and the rest percentage of 40% Captisol in water (w/v). The animals are weighed before dosing. The determined body weight is used to calculate the dose volume for each animal.
PO rats are typically dosed through oral gavage following the same dose volume formula as IV to achieve a dose level of 1 to 5 mg/kg. […] About 250 uL of blood is obtained at each time point from the animal. Equal volumes of 0.9% normal saline are replaced to prevent dehydration. The whole blood samples are maintained on ice until centrifugation. Blood samples are then centrifuged at 14,000 rpm for 10 minutes at 4° C. and the upper plasma layer transferred into a clean vial and stored at −80° C. The resulting plasma samples are then analyzed by liquid chromatography-tandem mass spectrometry. Following the measurement of plasma samples and dosing solutions, plasma concentration-time curve is plotted. […] The % F is reported as the mean % F of all animals dosed orally with the compound of the invention at the specified level (see Table 4 below).

Data set [3] in a line: Determination of aqueous (kinetic) solubility. The format is physicochemical. To be noted: buffer pH 7.4, room temperature. On the procedure: The mixture was vortexed for 1 hour and equilibrated overnight at room temperature. The mixture was filtered through a saturated filter and the filtrate was analyzed by LC/MS/MS.

pIC50: −log10 of the molar value.

Turning to `Cc1ccc2c(=O)n([C@H](C)CO)ccc2c1NC(=O)Cc1ccc(F)c(C(F)(F)F)c1` [Compound 394], the pIC50 (commonly the IC50 on a negative log10 scale, so that one unit is a factor of ten) in data set [1] was 9.13. With `Cc1ccc2c(=O)n([C@H](C)CO)ccc2c1NC(=O)Cc1cccc(C(F)(F)F)c1F` [Compound 395], in data set [2], the “Oral Bioavailability F (%)” value is listed as “++ (26-50% F)”.

Regarding `Cc1ccc2c(=O)n([C@H](C)CO)ccc2c1NC(=O)Cc1ccc(C(F)(F)F)cc1` [Compound 397], the pIC50 in data set [1] is 8.26. Regarding `Cc1ccc2c(c1NC(=O)Cc1ccc(C(F)(F)F)c(F)c1)CCN([C@H](C)CO)C2=O` [Compound 401, N-[6-Methyl-2-((R)-2-hydroxy-1-methyl-ethyl)-1-oxo-1,2,3,4-tetrahydro-isoquinolin-5-yl]-2-(3-fluoro-4-trifluoromethyl-phenyl)-acetamide], the solubility (usually the concentration that dissolves in the medium under given conditions) in data set [3] is more than 75 µM. In addition, in data set [1], the pIC50 is 8.84.
